Laboratory results reported in PubChem BioAssay (NCI).
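Following 48 hours of exposure in 96-well plates, responses at five concentrations were used to interpolate endpoints linearly. At the GI50, growth is halved. TGI denotes the concentration required for complete inhibition of growth.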

Key:
Experiment in all cases: inhibition of tumour cell growth, NCI panel, 48 h
[1] = test system: 786-0 renal
[2] = test system: A498 renal
[3] = test system: A549 NSCLC
[4] = test system: ACHN renal
[5] = test system: BT-549 breast
[6] = test system: CAKI-1 renal
[7] = test system: CCRF-CEM leukemia
[8] = test system: COLO 205 colon
[9] = test system: DU-145 prostate
[10] = test system: EKVX NSCLC
[11] = test system: HCC-2998 colon
[12] = test system: HCT-116 colon
[13] = test system: HCT-15 colon
[14] = test system: HL-60(TB) leukemia
[15] = test system: HOP-62 NSCLC
[16] = test system: HOP-92 NSCLC
[17] = test system: HS 578T breast
[18] = test system: HT29 colon
[19] = test system: IGROV1 ovarian
[20] = test system: K-562 leukemia
[21] = test system: KM12 colon
[22] = test system: LOX IMVI melanoma
[23] = test system: M14 melanoma
[24] = test system: MALME-3M melanoma
[25] = test system: MCF7 breast
[26] = test system: MDA-MB-231 breast
[27] = test system: MDA-MB-435
[28] = test system: MDA-MB-468 breast
[29] = test system: MOLT-4 leukemia
[30] = test system: NCI-H226 lung
[31] = test system: NCI-H23 lung
[32] = test system: NCI-H460 lung
[33] = test system: NCI-H522 lung
[34] = test system: NCI/ADR-RES ovarian
[35] = test system: OVCAR-3 ovarian
[36] = test system: OVCAR-4 ovarian
[37] = test system: OVCAR-5 ovarian
[38] = test system: OVCAR-8 ovarian
[39] = test system: PC-3 prostate
[40] = test system: RPMI-8226 leukemia
[41] = test system: RXF 393 renal
[42] = test system: SF-268 CNS
[43] = test system: SF-295 CNS
[44] = test system: SF-539 CNS
[45] = test system: SK-MEL-2 melanoma
[46] = test system: SK-MEL-28 melanoma
[47] = test system: SK-MEL-5 melanoma
[48] = test system: SK-OV-3 ovarian
[49] = test system: SN12C renal
[50] = test system: SNB-19 CNS
[51] = test system: SNB-75 CNS
[52] = test system: SR leukemia
[53] = test system: SW-620 colon
[54] = test system: T-47D breast
[55] = test system: TK-10 renal
[56] = test system: U251 CNS
[57] = test system: UACC-257 melanoma
[58] = test system: UACC-62 melanoma
[59] = test system: UO-31 renal

SMILES: Cn1ncc2c(N)nc(Oc3ccccc3-c3ccccc3)nc21
- GI50 [1]: 26.4 µM
- TGI [1]: > 100 µM
- GI50 [2]: 62.2 µM
- TGI [2]: > 100 µM
- GI50 [3]: 6.74 µM
- TGI [3]: > 100 µM
- GI50 [4]: 20.6 µM
- TGI [4]: > 100 µM
- GI50 [5]: 4.28 µM
- TGI [5]: 37.6 µM
- GI50 [6]: 7.72 µM
- TGI [6]: > 100 µM
- GI50 [7]: 3.73 µM
- TGI [7]: 46.3 µM
- GI50 [8]: 7.05 µM
- TGI [8]: > 100 µM
- GI50 [9]: 32.3 µM
- TGI [9]: > 100 µM
- GI50 [10]: 9.41 µM
- TGI [10]: > 100 µM
- GI50 [11]: 10.2 µM
- TGI [11]: > 100 µM
- GI50 [12]: 4.53 µM
- TGI [12]: > 100 µM
- GI50 [13]: 3.79 µM
- TGI [13]: > 100 µM
- GI50 [14]: 3.93 µM
- TGI [14]: 30.5 µM
- GI50 [15]: 32 µM
- TGI [15]: > 100 µM
- GI50 [16]: 14.3 µM
- TGI [16]: > 100 µM
- GI50 [17]: 5.73 µM
- TGI [17]: 41.4 µM
- GI50 [18]: 3.4 µM
- TGI [18]: 34.6 µM
- GI50 [19]: 8.02 µM
- TGI [19]: > 100 µM
- GI50 [20]: 3.44 µM
- TGI [20]: > 100 µM
- GI50 [21]: 4.82 µM
- TGI [21]: > 100 µM
- GI50 [22]: 7.01 µM
- TGI [22]: > 100 µM
- GI50 [23]: 4.54 µM
- TGI [23]: > 100 µM
- GI50 [24]: 4.3 µM
- TGI [24]: > 100 µM
- GI50 [25]: 3.66 µM
- TGI [25]: > 100 µM
- GI50 [26]: 4.54 µM
- TGI [26]: > 100 µM
- GI50 [27]: 1.99 µM
- TGI [27]: 5.44 µM
- GI50 [28]: 1.74 µM
- TGI [28]: 4.92 µM
- GI50 [29]: 4.22 µM
- TGI [29]: 34.7 µM
- GI50 [30]: 6.65 µM
- TGI [30]: 97.2 µM
- GI50 [31]: 8.54 µM
- TGI [31]: > 100 µM
- GI50 [32]: 3.87 µM
- TGI [32]: > 100 µM
- GI50 [33]: 2.21 µM
- TGI [33]: 7.03 µM
- GI50 [34]: 3.26 µM
- TGI [34]: 17.5 µM
- GI50 [35]: 6.61 µM
- TGI [35]: > 100 µM
- GI50 [36]: 19.3 µM
- TGI [36]: > 100 µM
- GI50 [37]: 6.5 µM
- TGI [37]: > 100 µM
- GI50 [38]: 13.1 µM
- TGI [38]: 65.1 µM
- GI50 [39]: 13.3 µM
- TGI [39]: > 100 µM
- GI50 [40]: 3.94 µM
- TGI [40]: 27.4 µM
- GI50 [41]: 10.3 µM
- TGI [41]: 47 µM
- GI50 [42]: 23.7 µM
- TGI [42]: > 100 µM
- GI50 [43]: 6.11 µM
- TGI [43]: > 100 µM
- GI50 [44]: 7.68 µM
- TGI [44]: > 100 µM
- GI50 [45]: 4.36 µM
- TGI [45]: > 100 µM
- GI50 [46]: 8.4 µM
- TGI [46]: > 100 µM
- GI50 [47]: 3.64 µM
- TGI [47]: 18.2 µM
- GI50 [48]: 30.3 µM
- TGI [48]: > 100 µM
- GI50 [49]: 7.43 µM
- TGI [49]: > 100 µM
- GI50 [50]: 29.3 µM
- TGI [50]: > 100 µM
- GI50 [51]: 3.75 µM
- TGI [51]: 34.2 µM
- GI50 [52]: 2.91 µM
- TGI [52]: > 100 µM
- GI50 [53]: 3.89 µM
- TGI [53]: > 100 µM
- GI50 [54]: 4.91 µM
- TGI [54]: > 100 µM
- GI50 [55]: 19.7 µM
- TGI [55]: > 100 µM
- GI50 [56]: 4.77 µM
- TGI [56]: > 100 µM
- GI50 [57]: 8.36 µM
- TGI [57]: > 100 µM
- GI50 [58]: 4.1 µM
- TGI [58]: 36.7 µM
- GI50 [59]: 11.4 µM
- TGI [59]: > 100 µM
